# Source: ChEMBL document CHEMBL1201862, “PubChem BioAssay data set” (2004)
# The source made the active and inactive calls.
# Columns and labels:
# Protein RecA = target: T1, Protein RecA (Mycobacterium tuberculosis, UniProt P9WHJ3); test: Fluorescence Cell-Free Homogeneous Dose Retest to Identify Inhibitors of RecA-Intein Splicing Activity. [Related pubchem assays (depositor defined):AID2097, AID2223, AID489010, AID492950]; format: functional
# T1 sequence (P9WHJ3 whole entry): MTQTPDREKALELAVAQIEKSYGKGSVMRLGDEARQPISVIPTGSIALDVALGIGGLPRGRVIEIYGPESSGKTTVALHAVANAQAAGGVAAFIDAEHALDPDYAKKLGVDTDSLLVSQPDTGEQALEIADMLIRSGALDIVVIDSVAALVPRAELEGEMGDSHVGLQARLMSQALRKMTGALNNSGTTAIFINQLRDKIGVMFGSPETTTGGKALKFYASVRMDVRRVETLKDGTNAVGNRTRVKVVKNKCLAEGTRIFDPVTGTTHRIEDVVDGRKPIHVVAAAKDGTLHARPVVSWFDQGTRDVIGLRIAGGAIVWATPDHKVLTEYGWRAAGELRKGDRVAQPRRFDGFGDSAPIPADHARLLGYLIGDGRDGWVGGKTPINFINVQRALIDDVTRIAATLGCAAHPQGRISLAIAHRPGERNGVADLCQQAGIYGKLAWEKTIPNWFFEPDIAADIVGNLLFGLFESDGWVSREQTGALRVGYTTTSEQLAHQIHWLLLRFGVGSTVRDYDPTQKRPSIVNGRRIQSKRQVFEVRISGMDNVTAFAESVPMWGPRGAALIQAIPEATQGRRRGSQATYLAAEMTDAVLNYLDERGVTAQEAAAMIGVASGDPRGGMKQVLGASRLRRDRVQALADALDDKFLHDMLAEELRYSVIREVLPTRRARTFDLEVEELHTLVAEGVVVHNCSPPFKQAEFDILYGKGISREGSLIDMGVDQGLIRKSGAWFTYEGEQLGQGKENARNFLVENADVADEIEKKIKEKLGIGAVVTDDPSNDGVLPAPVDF
# [1] = target: T2, Replicative DNA helicase DnaB (Mycobacterium tuberculosis, UniProt P9WMR3); test: DnaB intein splicing inhibitors, dose response, biochemical, cell-free fluorescence (AID 449749); format: functional
# T2 sequence (P9WMR3 whole entry): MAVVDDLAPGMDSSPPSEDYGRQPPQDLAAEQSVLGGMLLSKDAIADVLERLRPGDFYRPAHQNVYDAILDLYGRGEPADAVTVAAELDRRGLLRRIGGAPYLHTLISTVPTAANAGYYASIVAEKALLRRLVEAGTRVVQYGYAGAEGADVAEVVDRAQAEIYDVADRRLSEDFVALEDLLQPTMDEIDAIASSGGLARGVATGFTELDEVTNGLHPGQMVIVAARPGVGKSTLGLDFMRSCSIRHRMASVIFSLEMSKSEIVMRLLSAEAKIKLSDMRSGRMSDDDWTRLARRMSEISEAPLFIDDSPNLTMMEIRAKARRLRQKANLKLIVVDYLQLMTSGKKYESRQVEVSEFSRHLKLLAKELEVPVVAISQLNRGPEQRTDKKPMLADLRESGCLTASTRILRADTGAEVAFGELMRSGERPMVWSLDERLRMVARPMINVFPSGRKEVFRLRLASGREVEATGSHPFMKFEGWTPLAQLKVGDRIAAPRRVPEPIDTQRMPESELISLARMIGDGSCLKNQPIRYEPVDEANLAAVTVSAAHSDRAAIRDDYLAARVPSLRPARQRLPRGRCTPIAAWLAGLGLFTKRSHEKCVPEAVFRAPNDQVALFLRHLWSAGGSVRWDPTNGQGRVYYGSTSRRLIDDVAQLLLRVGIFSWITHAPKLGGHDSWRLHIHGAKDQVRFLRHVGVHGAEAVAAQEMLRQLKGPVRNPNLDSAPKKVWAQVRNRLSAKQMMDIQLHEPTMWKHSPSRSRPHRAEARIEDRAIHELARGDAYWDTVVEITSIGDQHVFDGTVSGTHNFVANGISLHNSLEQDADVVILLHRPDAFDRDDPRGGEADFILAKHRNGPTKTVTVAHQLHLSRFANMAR
# [2] = target: T3, Corticotropin-releasing factor receptor 2/Corticotropin-releasing factor-binding protein (Homo sapiens, UniProt P24387+Q13324); test: Dose Response confirmation of uHTS hits for small molecule antagonists of the CRF-binding protein and CRF-R2 receptor complex.; format: functional; conditions: read-out: IC50_Mean
# T3 sequence (Q13324 whole entry): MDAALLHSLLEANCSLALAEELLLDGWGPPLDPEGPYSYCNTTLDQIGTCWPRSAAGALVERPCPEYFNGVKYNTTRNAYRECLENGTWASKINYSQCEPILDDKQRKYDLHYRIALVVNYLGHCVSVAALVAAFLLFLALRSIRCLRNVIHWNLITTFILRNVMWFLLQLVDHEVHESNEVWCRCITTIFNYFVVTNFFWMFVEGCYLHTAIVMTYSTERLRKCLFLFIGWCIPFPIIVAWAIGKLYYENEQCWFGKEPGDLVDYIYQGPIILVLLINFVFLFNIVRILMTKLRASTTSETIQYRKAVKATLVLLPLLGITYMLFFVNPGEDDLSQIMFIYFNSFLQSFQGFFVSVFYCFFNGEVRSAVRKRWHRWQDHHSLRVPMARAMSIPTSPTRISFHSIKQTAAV
# T3 sequence (P24387 whole entry): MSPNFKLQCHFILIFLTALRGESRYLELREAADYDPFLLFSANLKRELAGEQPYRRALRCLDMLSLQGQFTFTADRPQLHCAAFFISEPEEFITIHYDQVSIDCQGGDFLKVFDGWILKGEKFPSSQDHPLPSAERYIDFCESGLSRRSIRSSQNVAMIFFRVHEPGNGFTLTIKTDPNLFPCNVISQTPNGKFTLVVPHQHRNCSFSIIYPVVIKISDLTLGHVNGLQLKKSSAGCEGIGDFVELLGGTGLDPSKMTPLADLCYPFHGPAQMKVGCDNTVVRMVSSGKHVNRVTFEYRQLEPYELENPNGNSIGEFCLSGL
# [3] = target: T3, Corticotropin-releasing factor receptor 2/Corticotropin-releasing factor-binding protein; test: activators of CRF receptor 2 with binding protein – uHTS hits, confirmation (AID 602473); format: functional; conditions: read-out: EC50_Mean
# [4] = target: T4, Heat shock factor protein 1 (Mus musculus, UniProt P38532); test: enhancement of HSF1-driven luciferase signal – cell-based, NIH3T3, luminescence, dose retest, confirmation (AID 435004); format: functional;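 note: stress induced by proteasome inhibitor MG132 added 30 min after compound; luciferase reporter driven by HSF1 response element in NIH3T3 cells; actives raise luminescence as potentiators of the MG132 stress response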
# T4 sequence (P38532 whole entry): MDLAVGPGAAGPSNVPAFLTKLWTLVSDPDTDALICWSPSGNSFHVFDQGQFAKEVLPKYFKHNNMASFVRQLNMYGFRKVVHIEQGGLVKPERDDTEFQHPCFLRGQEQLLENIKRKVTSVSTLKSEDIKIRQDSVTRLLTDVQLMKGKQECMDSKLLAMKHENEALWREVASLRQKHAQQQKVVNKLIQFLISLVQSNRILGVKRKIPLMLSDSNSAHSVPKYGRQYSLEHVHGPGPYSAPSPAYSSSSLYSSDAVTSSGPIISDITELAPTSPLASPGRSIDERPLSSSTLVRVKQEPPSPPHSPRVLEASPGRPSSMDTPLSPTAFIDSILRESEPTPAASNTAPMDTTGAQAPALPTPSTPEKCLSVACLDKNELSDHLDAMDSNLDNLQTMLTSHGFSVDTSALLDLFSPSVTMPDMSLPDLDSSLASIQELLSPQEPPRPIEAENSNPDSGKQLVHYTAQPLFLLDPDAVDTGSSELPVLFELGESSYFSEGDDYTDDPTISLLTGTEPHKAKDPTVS
# Cytochrome P450 2D6 = Cytochrome P450 2D6 (Homo sapiens, UniProt P10635);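 note: CYP2D6 member of a cytochrome P450 panel assay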
# Cytochrome P450 2D6, sequence (P10635 whole entry): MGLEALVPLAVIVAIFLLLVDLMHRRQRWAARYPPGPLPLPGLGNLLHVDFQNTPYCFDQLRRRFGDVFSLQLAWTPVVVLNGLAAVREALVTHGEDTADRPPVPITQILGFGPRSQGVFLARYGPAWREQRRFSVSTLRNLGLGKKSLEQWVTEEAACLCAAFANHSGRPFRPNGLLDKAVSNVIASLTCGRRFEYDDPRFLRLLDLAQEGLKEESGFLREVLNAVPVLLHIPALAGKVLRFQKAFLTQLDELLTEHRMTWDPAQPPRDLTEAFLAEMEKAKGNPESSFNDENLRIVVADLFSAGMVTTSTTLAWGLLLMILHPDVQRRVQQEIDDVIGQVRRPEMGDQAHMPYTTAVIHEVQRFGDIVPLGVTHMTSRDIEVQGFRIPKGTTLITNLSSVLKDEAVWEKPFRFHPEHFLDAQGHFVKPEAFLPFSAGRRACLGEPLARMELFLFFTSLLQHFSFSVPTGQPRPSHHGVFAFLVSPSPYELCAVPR
# [5] = NIH3T3 cell viability loss – ATP luminescence, mouse fibroblasts, counter-screen, dose response (AID 2010); format: functional, cell-based;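 note: cells exposed to compound for about 90 hours before reading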
# [6] = target: T5, Polyadenylate-binding protein 1 (Homo sapiens, UniProt P11940); test: MLLE domain peptide-binding blockers, IC50 – biochemical, fluorescence polarization, FITC-PAM2 peptide, dose response (AID 602259); format: functional; conditions: read-out: IC50_Mean
# T5 sequence (P11940 whole entry, the tested form may be a part): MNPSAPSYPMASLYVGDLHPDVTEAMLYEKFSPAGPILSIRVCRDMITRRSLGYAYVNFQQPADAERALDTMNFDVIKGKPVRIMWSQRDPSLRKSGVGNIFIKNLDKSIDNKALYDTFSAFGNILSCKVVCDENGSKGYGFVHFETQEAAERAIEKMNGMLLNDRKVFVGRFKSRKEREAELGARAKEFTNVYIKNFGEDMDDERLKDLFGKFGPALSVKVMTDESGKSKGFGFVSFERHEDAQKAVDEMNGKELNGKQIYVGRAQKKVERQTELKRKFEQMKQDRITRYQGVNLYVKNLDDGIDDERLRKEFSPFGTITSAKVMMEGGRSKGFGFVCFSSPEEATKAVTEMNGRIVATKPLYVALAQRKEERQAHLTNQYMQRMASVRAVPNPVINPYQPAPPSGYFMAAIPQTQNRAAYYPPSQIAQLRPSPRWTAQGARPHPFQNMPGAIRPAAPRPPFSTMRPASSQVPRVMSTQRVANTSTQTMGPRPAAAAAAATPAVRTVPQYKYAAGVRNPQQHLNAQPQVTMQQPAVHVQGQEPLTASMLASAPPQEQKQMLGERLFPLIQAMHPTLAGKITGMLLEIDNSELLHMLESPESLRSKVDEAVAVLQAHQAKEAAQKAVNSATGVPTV
# [7] = Trypanosoma cruzi growth suppression in host cells – NIH3T3 host cells, beta-gal luminescence, confirmation (AID 2044); format: functional, cell-based;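 note: intracellular parasites grown in NIH/3T3 mouse fibroblasts as host cells; luminescent beta-galactosidase reporter signal from transgenic T. cruzi replicating inside host cells; inhibitors lower the luminescence signal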
# INS1 = test: INS-1E survival protection against cytokine death – cell-based, luminescence, retest, dose response (AID 449756); format: functional; conditions: Rattus norvegicus;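 note: cell death triggered by IL-1 beta plus TNF-alpha plus IFN-gamma mixture; protective hits raise ATP signal compared with cytokine alone wells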
# [8] = target: T5, Polyadenylate-binding protein 1; test: MLLE binding blockers, Cy5 peptide tracer – biochemical, fluorescence polarization, Cy5-PAM2 peptide, secondary, miRNA deadenylation inhibitor project, dose response (AID 602260); format: functional; conditions: read-out: IC50_Mean
# Cytochrome P450 2C19 = Cytochrome P450 2C19 (Homo sapiens, UniProt P33261); test: Cytochrome panel assay with activity outcomes. Panel member name: p450-cyp2c19 Compounds with AC50 equal or less than 10 uM are considered active; format: functional; conditions: read-out: AC50
# Cytochrome P450 2C19, sequence (P33261 whole entry): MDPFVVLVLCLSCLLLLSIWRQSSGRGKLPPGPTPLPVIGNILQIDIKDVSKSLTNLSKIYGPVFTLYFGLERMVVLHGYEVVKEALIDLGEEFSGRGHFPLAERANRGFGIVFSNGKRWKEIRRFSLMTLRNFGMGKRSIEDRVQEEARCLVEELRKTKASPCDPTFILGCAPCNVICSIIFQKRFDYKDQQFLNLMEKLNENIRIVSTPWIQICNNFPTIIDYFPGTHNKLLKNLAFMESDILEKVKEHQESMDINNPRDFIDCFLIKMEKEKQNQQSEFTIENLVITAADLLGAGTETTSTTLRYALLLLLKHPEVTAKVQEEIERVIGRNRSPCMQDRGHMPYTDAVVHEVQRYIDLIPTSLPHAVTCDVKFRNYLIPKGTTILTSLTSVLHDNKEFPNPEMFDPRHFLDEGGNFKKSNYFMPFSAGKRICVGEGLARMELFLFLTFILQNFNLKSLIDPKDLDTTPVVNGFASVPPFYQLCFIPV
# [9] = viability of uninfected HEp-2 cells – cell-based, HTS, cytotoxicity control for RSV inhibitor project, dose response (AID 2410); format: functional; conditions: human respiratory syncytial virus
smiles,measurement,setting,value
Cc1ccc2c(c1)N(C(=O)CSc1nncn1C)C(C)(C)c1ssc(=S)c1-2,EC50,Protein RecA,10.1 µM (active)
same,AC50,[1],8.82 µM (active)
CCc1ccccc1N1C(=O)C2CC(C)=C(C)CC2C1=O (centres undefined),IC50,[2],> 47.1 µM (inactive)
same,EC50,[3],> 53 µM (inactive)
Cc1ccc(O)c(CNc2nccs2)c1,EC50,[4],20.5 µM (active)
O=[N+]([O-])c1cc(/C=N/c2cccc3c(O)cccc23)ccc1Cl,EC50,Protein RecA,8.76 µM (active)
same,AC50,[1],46.8 µM (active)
O=S(=O)(NC1c2cccc3cccc(c23)C1N1CCNCC1)c1ccc(Cl)cc1 (centres undefined),EC50,[4],> 260 µM (inactive)
COC(=O)[C@@]1(Cc2ccccc2)[C@H]2c3cc(C(=O)N(C)C)n(Cc4ccccc4)c3C[C@H]2CN1C(=O)c1ccccc1,AC50,Cytochrome P450 2D6,39.8 µM (inconclusive)
Cc1cc2cc(CN3C(=O)c4ccccc4C3=O)ccc2n1C,EC50,[5],> 60 µM (not active)
same,IC50,[6],55.2 µM (inactive)
same,EC50,[7],< 0.1 µM (active)
same,AC50,INS1,13.3 µM (active)
same,IC50,[8],> 66 µM (inactive)
COc1ccc(C(=O)c2ccccc2)c(O)c1 [OXYBENZONE],AC50,Cytochrome P450 2C19,0.398 µM (inconclusive)
same,AC50,Cytochrome P450 2D6,12.6 µM (inconclusive)
CC(C)c1ccc(/C=C/C(=O)n2nnc3ccccc32)cc1,CC50,[9],25.1 µM (active)
same,EC50,[4],14.2 µM (active)
CCOC(=O)Cn1nnnc1C(C(C)C)N(Cc1cc2c(C)cc(C)cc2[nH]c1=O)C1CCCC1 (centres undefined),EC50,[4],36.9 µM (active)
COCCNc1ncnc2ccc(-c3ccccc3C(F)(F)F)cc12,AC50,Cytochrome P450 2D6,39.8 µM (inconclusive)
CCC(C)(C)n1nnnc1CN(Cc1ccco1)Cc1cc2cc3c(cc2nc1O)OCO3,IC50,[6],> 66 µM (inactive)
same,IC50,[8],> 66 µM (inactive)
Cn1ccnc1P(=S)(c1nccn1C)N1CCOCC1,IC50,[6],> 66 µM (inactive)
same,IC50,[8],> 66 µM (inactive)
COC(=O)COc1ccc(C(c2c(C)n[nH]c2O)c2c(C)n[nH]c2O)cc1,EC50,Protein RecA,0.377 µM (active)
same,AC50,[1],0.347 µM (active)
CCOc1cccc(=O)c2c(C)oc(C)c12,IC50,[6],41.6 µM (inactive)
same,IC50,[8],37.3 µM (inactive)
CC(C)c1cccc2c([Si](C)(C)C)c3c(nc12)-c1cccc(=O)n1C3,AC50,Cytochrome P450 2D6,20 µM (inconclusive)
